This note sets out measurements from US20240228506A1, “RIPK1 INHIBITORS AND METHODS OF USE” (Merck Sharp & Dohme LLC, priority 2021, published 2024).

pIC50: −log10 of the molar value.

This experiment addresses T1, GST-RIPK1 (recombinant GST-RIPK1 kinase domain (residues 1-327)) (Homo sapiens, UniProt Q13546).
T1 construct: recombinant GST-RIPK1 kinase domain (residues 1-327) enzyme; made in house; host or cells: baculovirus-transfected Sf21 insect cells
T1 sequence (Q13546 1-327): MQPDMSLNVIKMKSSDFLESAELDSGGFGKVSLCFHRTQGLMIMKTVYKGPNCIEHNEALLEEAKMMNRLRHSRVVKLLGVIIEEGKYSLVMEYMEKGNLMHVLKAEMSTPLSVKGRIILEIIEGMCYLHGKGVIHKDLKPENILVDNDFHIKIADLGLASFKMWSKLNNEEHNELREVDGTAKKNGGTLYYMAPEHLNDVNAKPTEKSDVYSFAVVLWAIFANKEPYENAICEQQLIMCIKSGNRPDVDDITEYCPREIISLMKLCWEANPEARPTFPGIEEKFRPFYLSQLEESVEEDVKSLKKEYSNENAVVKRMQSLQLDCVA
Description: RIPK1-ADP-Glo enzymatic assay. The class given is biochemical. The conditions noted are these: 25 nM GST-RIPK1, 300 μM ATP, 3 μM dephosphorylated-MBP; 30 minutes pre-incubation, 150 minutes reaction; ten-point titration. In short, it runs like this: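 Ten-point 1:3 titrations from 100000 nM, 1% DMSO, were preincubated 30 min with 25 nM GST-RIPK1 (1-327) before starting with 300 μM ATP plus 3 μM dephosphorylated MBP; 150 min reaction. ADP-Glo luminescence measured ATP-to-ADP conversion; EC50 by four-parameter sigmoidal regression.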
(In general: ADP-Glo first removes unused ATP, then detects ADP through luciferase.)

Take `CN(C)C1(C(=O)N2C[C@@H]3C[C@H]2c2cncc(C#N)c2O3)CCC1` [Compound 1-91, (2S,5S)-4-(1-(dimethylamino)cyclobutane-1-carbonyl)-2,3,4,5-tetrahydro-2,5-methanopyrido[3,4-f][1,4]oxazepine-9-carbonitrile]: the pIC50 was 7.19.

By pIC50 is commonly meant the negative decadic logarithm of the IC50, by convention in mol/L.
